# Assay results: patent US20140171371A1, “Compositions And Methods For The Diagnosis of Schizophrenia” (The Trustees of Columbia University in the City of New York, priority 2011, published 2014)
# System: lymphoblastoid cell lines
# Test: Cyclic AMP accumulation in lymphoblastoid cell lines in response to another GPCR agonist (specificity control)
# Type: cell-based, human
# Details: PGE2 1 μM + forskolin 10 μM, IBMX 200 μM pre-incubation, 10 min, fold-change over forskolin/IBMX alone
# Method: Reactions were terminated by pelleting the cells, aspiration of the medium and addition of 100 μl of cold 7.5% (wt/vol) trichloroacetic acid (TCA). Cyclic AMP content in TCA extracts was determined by radioimmunoassay and normalized to the number of cells per well. […] Results presented for each subject represents the mean and standard error of at least ten replicates. Standard error and P-values for pooled results were computed across individuals (FIG. 3).
smiles,measurement,setting,value
CCCCC[C@H](O)/C=C/[C@H]1[C@H](O)CC(=O)[C@@H]1C/C=C\CCCC(=O)O [prostaglandin E2],"cAMP accumulation in response to agonist, 7q36.3 duplication carriers compared to controls",,no group difference
same,"cAMP accumulation in response to agonist, 7q36.3 duplication carriers compared to controls",listed as PGE2,No difference
same,"cAMP accumulation in response to agonist, 7q36.3 duplication carriers compared to controls",listed as Prostaglandin E2,No significant differences
